Data as given in patent US20250127167A1, “ANTIMICROBIAL PEPTIDES” (priority 2021, published 2025).
Entries after “also recorded” stand apart in the source; their conditions may differ. Read-outs that look alike come from different tables or passages of the source. Where a SMILES comes first, the peptide text is derived from it. [ ]: non-standard residue; d: D form. Phe(4-F) = N[C@@H](Cc1ccc(F)cc1)C(=O)O; Dopa = N[C@@H](Cc1ccc(O)c(O)c1)C(=O)O

Experiments:
fruit and plant viruses = assay: Antiviral activity against fruit viruses
From the text: The potential antiviral activity of DOPA-Phe(Br)—OH against fruit viruses and other microbial sources was also investigated.

T4 bacteriophage [1] = system: T4 bacteriophage
Description: All the tripeptide powders were firstly dissolved into ethanol and diluted by TDW. The solutions were stirring for 3 h (150 rpm, room temperature) for complete self-assembly. The final concentration is 10 mg/mL. […] As a control, single amino acids (L-DOPA, L-Phenylalanine, and 4-Fluoro-L-phenylalanine) were also used to examine their antiviral activity. To further evaluate the antiviral activity for the peptide assemblies, the antiviral MIC for traditional Ag and Cu nanoparticles were also tested. The stock solutions were two-fold diluted using LB phage to obtain a series of peptide concentrations until the lowest concentration needed was achieved. Next, the 100 μL T4 bacteriophage (10^5 PFU/mL) and 100 μL diluted peptide solutions were transferred into 800 μL LB phage and then the samples were shaken at 150 rpm at room temperature. After 24 h incubation, the samples were centrifuged at 14000 g for 10 min to precipitate the peptide particles. Supernatants were collected and then 10-fold diluted once. Then, the 20 μL supernatants were mixed with 25 μL bacteria (E. coli. ATCC11303) in 1 mL warm 0.6% agarose. Then the mixture was spread out on 1.5% LB agar to form a double agar layer. The plate was incubated at 37° C. for 18 h to form the plaques. The lowest concentration of peptides that prevented virus growth is defined as the antiviral minimum inhibitory concentration (MIC).
A series of two-fold diluted peptide solutions (1000, 500, 250, 125, 62.5, 31.25, 15.625, and 7.8125 µg/mL) was prepared to measure the antiviral MIC. Next, 100 μL T4 bacteriophage (10^5 PFU/mL) and 100 μL diluted peptide solutions were transferred into 800 μL LB phage; then, the samples were shaken at 150 rpm at room temperature. After 24 h incubation, the samples were centrifuged at 14000×g for 10 min to precipitate the peptide particles. Supernatants were collected and then 10-fold diluted once. Next, the 20 μL supernatants were mixed with 25 μL bacteria (E. coli. ATCC11303) in 1 mL of warm 0.6% agarose. Then, the mixture was spread out on 1.5% LB agar to form a double agar layer. The plate was incubated at 37° C. for 18 h to form plaques. The lowest concentration of peptides that prevented virus growth is defined as the antiviral minimum inhibitory concentration (MIC). L-DOPA, L-phenylalanine, L-Phe(4F), Phe(4F)-Phe(4F), and diphenylalanine were used as controls.

Canine coronavirus (CCV) = format: cell-based; settings: for log (TCID50/mL) of CCV: 3-layer coating, 3 h incubation, uncoated glass 4.77±0.12; for effect on CCV (in words): 3-layer coatings / controls
T4 bacteriophage [2] = assay: Antiviral activity for coatings against T4 bacteriophage (bacteriophage plaque assay); format: cell-based, Escherichia coli bacteriophage T4; settings: for viral titer of T4 bacteriophage / virus titer of T4 bacteriophage / virus titer of bacteriophage T4 on dipeptide coatings: 24 h; for virus titer of T4 bacteriophage: 3-layer coating on glass, bare glass 13579±2839; for virus titer of bacteriophage T4 on dipeptide coatings: 10 mg/mL drop-casted three times, bare glass 29000±2000 PFU/mL; for reduction of the viral titer by dipeptide coatings: versus bare glass
Description: The antiviral activity performance was measured according to work by Kim et al. and Matsumoto et al. with some modification. The peptide coatings were prepared as described before. We used T4 bacteriophage as the virus when we measured the antiviral activity. Bacteriophage suspension was propagated on E. coli (ATCC 11303) according to ISO 18061, which was grown as the host strain. The mixture obtained by adding 100 μL of fresh T4 phage to an overnight culture of E. coli was incubated for 4 h in a 10 mL LB phage at 37° C. After multiplication, the virus was collected by centrifugation at 4000×g for 10 min at room temperature. The concentration of T4 bacteriophage was measured using the soft agar overlay (double-agar layer) plaque assay method. The supernatant containing the bacteriophage culture was filtrated through cellulose acetate filters (Millipore Acrodisc; the pore sizes were 0.45 μm and 0.22 μm) before use (the final concentration of bacteriophage was 10^9 PFU/mL).
Ten decimal serial dilutions of the virus suspension were prepared by LB phage. The aqueous suspensions for the E. coli and T4 bacteriophage inactivation experiments contained sample surfaces having dimensions of 1*1 cm and T4 phage at 1.0×10^6 plaque-forming units (PFU)/mL. As a positive control, we also added 16 μL 1.0×10^6 plaque-forming units (PFU)/mL bacteriophage T4 on bare glass and then treated the surface by a UV irradiation (long wave ultraviolet 365 nm) for 3 h. Next, the phages were incubated under humid conditions at room temperature (25° C.) in a dark room for 24 h. After incubation, the phages were harvested by shaking with 2 mL SCDLP broth for 15 min to stop the incubation. The T4 in SCDLP bacteriophage was diluted with LB phage 10-fold. Subsequently, samples and bacteria were mixed with 0.6% agarose. Then the mixture was spread out on 1.5% LB agar to form a double agar layer. The plate was incubated at 37° C. for 18 h to form the plaques. The antiviral activity was defined and calculated as eq 2 below: The initial virus titer (No) and the virus titer after incubation (N) were calculated by counting the plaque number. For each sample, 9 repeats were performed to assess the antiviral activity.
The antiviral activity performance was measured according to our previous work. Briefly, 10 decimal serial dilutions of the virus suspension were prepared by LB phage. The aqueous suspensions for the E. coli and T4 bacteriophage inactivation experiments contained sample surfaces with dimensions of 1*1 cm and T4 phage at 1.0×106 plaque-forming units (PFU)/mL. Next, the phages were incubated under humid conditions at room temperature (25° C.) in a dark room for 24 h. After incubation, the phages were harvested by shaking them with 2 mL SCDLP broth for 15 min to stop the incubation. The T4 in the SCDLP bacteriophage was diluted with LB phage 10-fold. Subsequently, samples and bacteria were mixed with 0.6% agarose. Then, the mixture was spread out on 1.5% LB agar to form a double agar layer. The plate was incubated at 37° C. for 18 h to form the plaques. The antiviral activity was defined and calculated as follows: The initial virus titer (NO) and the virus titer after incubation (N) were calculated by counting the plaque number. For each sample, 9 repeats were performed to assess the antiviral activity.

[3] = Stability of peptide coatings (XPS after immersing or washing); format: physicochemical; settings: 3-layer coating
Description: X-ray photoelectron spectroscopy (XPS) analyses were performed by using an AXIS Ultra X-ray photoelectron spectrometer (Kratos Analytical, Ltd., Manchester, UK). The sample's take-off angle was 90°. The vacuum pressure in the analyzing chamber was maintained at 2×10^−9 Torr. High-resolution XPS spectra were collected for F is, O is, C is, and N is peaks with 20 eV pass energy and 0.1 eV step size. Data analyses were carried out using Kratos Vision data reducing processing software (Kratos Analytical, Ltd.) and Casa XPS (Casa Software, Ltd.).
(§1) To examine the coating stabilities, peptide coatings were immersed into TDW for 5 min or washed with 2 mL TDW three times and then dried at room temperature. X-ray photoelectron spectroscopy (XPS) analyses were performed for the immersed and washed coatings. Moreover, peptide coatings were wiped with a finger at a load of 1 g and then water contact angle measurements were performed using the same method as described in the Contact angle measurements section.

[4] = Water contact angle measurements of coated glass; format: physicochemical; settings: for water contact angle after wiping: 3-layer coating, wiped at a load of 1 g
Description: Contact angle measurements were examined by using a Theta Lite optical tensiometer (Attension, Finland). Each experimental measurement consisted of three repeats.
as §1

[5] = Table 1, tripeptide assemblies, single amino acids and metal nanoparticles, 24 h incubation

DOPA-Phe(Br)—NH2
eradication of fruit and plant viruses (fruit and plant viruses): capable of eradicating fruit and plant viruses

N[C@@H](Cc1ccc(F)cc1)C(=O)O [L-Phe(4F), 4-Fluoro-L-phenylalanine]
antiviral activity against T4 bacteriophage (in words) (T4 bacteriophage [1]; in solution): did not decrease the viral titer | antiviral activity against T4 bacteriophage (in words) (T4 bacteriophage [1]; in solution, listed as 4-Fluoro-L-phenylalanine): no antiviral activity

H-Phe-Phe-OH [Diphenylalanine]
log (TCID50/mL) of CCV (Canine coronavirus (CCV)): 4.67±0.42 log (TCID50/mL) | effect on CCV (in words) (Canine coronavirus (CCV)): do not appreciably affect the viability of CCV; also recorded: did not show any antiviral activity | antiviral activity of drop-casted controls against T4 bacteriophage (in words) (T4 bacteriophage [2]): did not decrease the viral titers; also recorded: did not exhibit antiviral activity | antiviral activity against T4 bacteriophage (in words) (T4 bacteriophage [1]; in solution, listed as Phe-Phe): did not decrease the viral titer | antiviral activity against T4 bacteriophage (in words) (T4 bacteriophage [1]; in solution, listed as diphenylalanine): did not show any antiviral activity

Phe(4F)-Phe(4F)—OMe [Phe(4F)-Phe(4F)-Ome]
antiviral activity against T4 bacteriophage (in words) (T4 bacteriophage [1]; in solution): did not decrease the viral titer

N[C@@H](Cc1ccc(O)c(O)c1)C(=O)O [L-DOPA, 3,4-dihydroxy-L-phenylalanine]
log (TCID50/mL) of CCV (Canine coronavirus (CCV)): 4.37±0.31 log (TCID50/mL) | effect on CCV (in words) (Canine coronavirus (CCV)): do not appreciably affect the viability of CCV | effect on CCV (in words) (Canine coronavirus (CCV); listed as DOPA): did not show any antiviral activity | antiviral activity of drop-casted controls against T4 bacteriophage (in words) (T4 bacteriophage [2]; drop-casted three times / deposited on glass, compared to a glass surface): did not decrease the viral titers | antiviral activity against T4 bacteriophage (in words) (T4 bacteriophage [1]; in solution, listed as DOPA): did not show any antiviral activity

COC(=O)[C@H](Cc1ccc(F)cc1)NC(=O)[C@H](Cc1ccc(F)cc1)NC(=O)[C@@H](N)Cc1ccc(O)c(O)c1 [DOPA-Phe(4F)-Phe(4F)-OMe] (H-[Dopa]-[Phe(4-F)]-[Phe(4-F)]-OMe; N-terminus assumed)
XPS signals after immersing in TDW for 5 min or washing three times [3]: did not decrease | log (TCID50/mL) of CCV (Canine coronavirus (CCV)): below the detection limit | reduction of viral titer compared with bare glass (T4 bacteriophage [2]; 1 layer coating): 79% | reduction rate (log (N/No)) of virus titers (T4 bacteriophage [2]; 1 layer coating): −0.7 | viral titer of T4 bacteriophage (T4 bacteriophage [2]; 1 layer coating on glass): 2610±369 PFU/mL | reduction of viral titer compared with bare glass (T4 bacteriophage [2]; 2 layers coating): 91% | reduction rate (log (N/No)) of virus titers (T4 bacteriophage [2]; 2 layers coating): −1.1 | viral titer of T4 bacteriophage (T4 bacteriophage [2]; 2 layers coating on glass): 1111±201 PFU/mL | reduction of virus titers compared to the glass surfaces (T4 bacteriophage [2]; 3-layer coating): 3 log | reduction of virus titers compared to the stock solution (T4 bacteriophage [2]; 3-layer coating): 6 log | virus titer of T4 bacteriophage (T4 bacteriophage [2]): 3±6 PFU/mL | reduction of viral titer compared with bare glass (T4 bacteriophage [2]; 3 layer coating): 99.9% | reduction rate (log (N/No)) of virus titers (T4 bacteriophage [2]; 3 layers coating): −3.7 | Antiviral MIC (T4 bacteriophage [1]; [5]): 31 µg/mL | water contact angle ([4]; 1 layer on glass, bare glass 12±2°): 23±2 ° | water contact angle ([4]; 2 layers on glass): 34±2 ° | water contact angle after wiping [4]: 33±1 ° | water contact angle ([4]; 3 layers on glass): 38±4 °

NC(=O)[C@H](Cc1ccc(F)cc1)NC(=O)[C@@H](N)Cc1ccc(O)c(O)c1 [DOPA-Phe(4F)-NH2] (H-[Dopa]-[Phe(4-F)]-NH2)
virus titer of bacteriophage T4 on dipeptide coatings (T4 bacteriophage [2]): no viruses were detected | reduction of the viral titer by dipeptide coatings (T4 bacteriophage [2]): ~4 logs | antiviral activity against T4 bacteriophage (in words) (T4 bacteriophage [1]; in solution): exhibited antiviral activity | Antiviral MIC (T4 bacteriophage [1]; in solution, T4 bacteriophage): 62.5 µg/mL

DOPA-Phe(Br)—OH
eradication of fruit and plant viruses (fruit and plant viruses): capable of eradicating fruit and plant viruses

NC(=O)[C@H](Cc1ccccc1)NC(=O)[C@@H](N)Cc1ccc(O)c(O)c1 [DOPA-Phe-NH2] (H-[Dopa]-Phe-NH2; N-terminus assumed)
virus titer of bacteriophage T4 on dipeptide coatings (T4 bacteriophage [2]): no viruses were detected | reduction of the viral titer by dipeptide coatings (T4 bacteriophage [2]): ~4 logs | Antiviral MIC (T4 bacteriophage [1]; 24 h): 125.00 µg/mL | antiviral activity against T4 bacteriophage (in words) (T4 bacteriophage [1]; in solution): exhibited antiviral activity | Antiviral MIC (T4 bacteriophage [1]; in solution, T4 bacteriophage): 125 µg/mL

COC(=O)[C@H](Cc1ccccc1)NC(=O)[C@H](Cc1ccccc1)NC(=O)[C@@H](N)Cc1ccc(O)c(O)c1 [DOPA-Phe-Phe-OMe] (H-[Dopa]-Phe-Phe-OMe; N-terminus assumed)
XPS signals after immersing in TDW for 5 min or washing three times [3]: did not change appreciably | log (TCID50/mL) of CCV (Canine coronavirus (CCV)): below the detection limit | reduction of virus titers compared to the glass surfaces (T4 bacteriophage [2]; 3-layer coating): 0.2 log | virus titer of T4 bacteriophage (T4 bacteriophage [2]): 8029±205 PFU/mL | reduction rate (log (N/No)) of virus titers (T4 bacteriophage [2]; 3 layers coating): −0.2 | Antiviral MIC (T4 bacteriophage [1]; [5]): 62 µg/mL | water contact angle after wiping [4]: 25±2 ° | water contact angle ([4]; 3 layers on glass): 29±1 °

N[C@@H](Cc1ccccc1)C(=O)O [L-Phe, L-phenylalanine]
effect on CCV (in words) (Canine coronavirus (CCV)): did not show any antiviral activity | antiviral activity against T4 bacteriophage (in words) (T4 bacteriophage [1]; in solution, listed as L-Phenylalanine): no antiviral activity
